Reference: US10173971B2, “Picolinamides with fungicidal activity” (DOW AGROSCIENCES LLC, priority 2014, dated 2019)
Read-outs that look alike come from different tables or passages of the source.

Experiments:
Zymoseptoria tritici = assay: Fungicidal activity: leaf blotch of wheat (SEPTTR), wheat seedlings, booth sprayer to run-off or track spray; type: in vivo; settings: for pest or weed control at 100 ppm: High-Volume Cereal Activity at 100 ppm; for pest or weed control at 121.5 g/ha: Low-Volume Cereal Activity at 121.5 g/H
Puccinia triticina = assay: Fungicidal activity: wheat brown rust (PUCCRT), wheat seedlings, booth sprayer to run-off or track spray; type: in vivo; settings: for pest or weed control at 100 ppm: High-Volume Cereal Activity at 100 ppm; for pest or weed control at 121.5 g/ha: Low-Volume Cereal Activity at 121.5 g/H
[1] = 24 h, 1 Day Protectant, read-out: SEPTTR 1DP
[2] = 3DC (Day Curative), read-out: SEPTTR 3DC
[3] = 24 h, 1 Day Protectant, read-out: PUCCRT 1DP
[4] = 72 h, 3 Day Curative, read-out: SEPTTR 3DC
[5] = 72 h, 3 Day Curative, read-out: PUCCRT 3DC
[6] = 3DC (Day Curative), read-out: PUCCRT 3DC

| Structure (SMILES) | pest or weed control at 100 ppm (Zymoseptoria tritici; [1]) [%] | pest or weed control at 100 ppm (Zymoseptoria tritici; [2]) [%] | pest or weed control at 100 ppm (Puccinia triticina; [3]) [%] | pest or weed control at 121.5 g/ha (Zymoseptoria tritici; [1]) [%] | pest or weed control at 121.5 g/ha (Zymoseptoria tritici; [4]) [%] | pest or weed control at 121.5 g/ha (Puccinia triticina; [3]) [%] | pest or weed control at 121.5 g/ha (Puccinia triticina; [5]) [%] | pest or weed control at 100 ppm (Puccinia triticina; [6]) [%] |
| --- | --- | --- | --- | --- | --- | --- | --- | --- |
| CC[C@H](NC(=O)c1nccc(OC)c1O)C(=O)O[C@@H](C)C(Cc1cccc(OC)c1)Cc1cccc(OC)c1 [compound 153] | 0 to 80 | 0 to 80 | 80 to 100 | – | – | – | – | – |
| COc1ccnc(C(=O)N[C@@H](C)C(=O)O[C@@H](C)[C@@H](COCc2ccc(F)cc2)Cc2ccc(F)cc2)c1OC(C)=O [compound 246] | – | – | – | 80 to 100 | 0 to 80 | 0 to 80 | 0 to 80 | – |
| CCOCC(=O)OCOc1c(OC)ccnc1C(=O)N[C@@H](C)C(=O)O[C@@H](C)[C@@H](COCc1ccccc1)Cc1ccc(F)cc1 [compound 233] | – | – | – | 0 to 80 | 0 to 80 | 80 to 100 | 0 to 80 | – |
| COc1ccnc(C(=O)N[C@@H](C)C(=O)O[C@@H](C)[C@H](Cc2ccc(F)cc2)c2ccccc2)c1OCOC(C)=O [compound 222] | – | – | – | 80 to 100 | 80 to 100 | 80 to 100 | – | – |
| COc1ccnc(C(=O)N[C@@H](C)C(=O)O[C@@H](C)[C@H](CCC(C)C)c2ccccc2)c1O [compound 123] | – | 80 to 100 | – | – | – | – | – | 0 to 80 |
| COc1ccnc(C(=O)N[C@@H](C)C(=O)O[C@@H](C)[C@H](Cc2ccc(Cl)cc2)c2ccccc2)c1OC(C)=O [compound 201] | – | – | – | 80 to 100 | 0 to 80 | 0 to 80 | 0 to 80 | – |
| COc1ccnc(C(=O)N[C@@H](C)C(=O)OC(C)C(Cc2cccc(F)c2)Cc2cccc(F)c2)c1OC(C)=O (stereo partly shown) [compound 263] | – | – | – | 0 to 80 | 0 to 80 | 0 to 80 | 0 to 80 | – |
| COc1cccc(CC(Cc2cccc(OC)c2)[C@H](C)OC(=O)[C@H](C)NC(=O)c2nccc(OC)c2OCOC(C)=O)c1 [compound 274] | – | – | – | 0 to 80 | – | 80 to 100 | 0 to 80 | – |
| CCOCC(=O)OCOc1c(OC)ccnc1C(=O)N[C@@H](C)C(=O)O[C@@H](C)[C@@H](COCc1ccccc1)Cc1ccccc1 [compound 234] | – | – | – | 0 to 80 | 80 to 100 | 80 to 100 | 80 to 100 | – |
| COc1ccnc(C(=O)N[C@@H](C)C(=O)O[C@@H](C)[C@@H](COc2ccc(Cl)cc2Cl)Cc2ccccc2)c1O [compound 126] | 0 to 80 | – | 0 to 80 | – | – | – | – | – |
| CCC[C@@H](Cc1ccccc1)[C@H](C)OC(=O)[C@H](C)NC(=O)c1nccc(OC)c1O [compound 113] | 0 to 80 | 80 to 100 | 80 to 100 | – | – | – | – | 80 to 100 |
| COC(=O)[C@@H](Cc1ccccc1)[C@H](C)OC(=O)[C@H](C)NC(=O)c1nccc(OC)c1O [compound 114] | – | 0 to 80 | 0 to 80 | – | – | – | – | 0 to 80 |
| C=C[C@H](Cc1ccc(C(F)(F)F)cc1)[C@@H](Cc1ccc(F)cc1)[C@H](C)OC(=O)CNC(=O)c1nccc(OC)c1OC(C)=O [compound 180] | – | – | – | 0 to 80 | – | 0 to 80 | – | – |
| COc1ccc(C[C@H](COc2ccc(F)cc2F)[C@H](C)OC(=O)[C@H](C)NC(=O)c2nccc(OC)c2OCOC(C)=O)cc1 [compound 282] | – | – | – | 0 to 80 | 0 to 80 | 80 to 100 | – | – |
| CC[C@H](Oc1ccccc1)[C@@H](Cc1ccccc1)[C@H](C)OC(=O)[C@H](C)NC(=O)c1nccc(OC)c1OCOC(C)=O [compound 191] | – | – | – | 80 to 100 | 80 to 100 | 80 to 100 | 80 to 100 | – |
| COc1ccnc(C(=O)N[C@@H](C)C(=O)O[C@@H](C)[C@H](Cc2ccc(Cl)c(Cl)c2)c2ccccc2)c1OCOC(C)=O [compound 218] | – | – | – | 80 to 100 | 0 to 80 | 0 to 80 | 0 to 80 | – |
| COc1ccnc(C(=O)N[C@@H](C)C(=O)O[C@@H](C)[C@H](Cc2ccc(F)cc2)C(C)(C)OCc2ccccc2)c1O [compound 133] | 0 to 80 | 0 to 80 | 80 to 100 | – | – | – | – | – |
| COc1ccnc(C(=O)N[C@@H](C)C(=O)O[C@@H](C)[C@@H](COCCC(C)C)Cc2ccccc2)c1OCOC(C)=O [compound 252] | – | – | – | 80 to 100 | 80 to 100 | 80 to 100 | 80 to 100 | – |
| CCOCC(=O)OCOc1c(OC)ccnc1C(=O)N[C@@H](C)C(=O)O[C@@H](C)[C@@H](COC)Cc1ccc(F)cc1 [compound 237] | – | – | – | 0 to 80 | 0 to 80 | 80 to 100 | 80 to 100 | – |

| Structure (SMILES) | pest or weed control at 100 ppm (Zymoseptoria tritici; [1]) [%] | pest or weed control at 100 ppm (Zymoseptoria tritici; [2]) [%] | pest or weed control at 100 ppm (Puccinia triticina; [3]) [%] | pest or weed control at 121.5 g/ha (Zymoseptoria tritici; [1]) [%] | pest or weed control at 121.5 g/ha (Zymoseptoria tritici; [4]) [%] | pest or weed control at 121.5 g/ha (Puccinia triticina; [3]) [%] | pest or weed control at 121.5 g/ha (Puccinia triticina; [5]) [%] | pest or weed control at 100 ppm (Puccinia triticina; [6]) [%] |
| --- | --- | --- | --- | --- | --- | --- | --- | --- |
| COc1ccnc(C(=O)N[C@@H](C)C(=O)OC(C)C(Cc2ccc(F)cc2)Cc2ccc(F)cc2)c1O (stereo partly shown) [compound 151] | 80 to 100 | – | 80 to 100 | – | – | – | – | – |
| COc1ccnc(C(=O)N[C@@H](C)C(=O)O[C@@H](C)[C@H](Cc2ccc(F)cc2)C(C)(C)OCc2ccc(F)cc2)c1O [compound 139] | 0 to 80 | 0 to 80 | 0 to 80 | – | – | – | – | – |
| CC[C@H](NC(=O)c1nccc(OC)c1OCOC(C)=O)C(=O)OC(C)C(Cc1ccccc1)Cc1ccccc1 (stereo partly shown) [compound 269] | – | – | – | 80 to 100 | 80 to 100 | 80 to 100 | 0 to 80 | – |
| CCCOC[C@@H](Cc1ccccc1)[C@H](C)OC(=O)[C@@H](C)NC(=O)c1nccc(OC)c1OCOC(C)=O [compound 166] | 0 to 80 | 0 to 80 | 80 to 100 | – | – | – | – | 80 to 100 |
| CC[C@H](NC(=O)c1nccc(OC)c1O)C(=O)OC(C)C(Cc1ccccc1)Cc1ccccc1 (stereo partly shown) [compound 149] | 80 to 100 | – | 80 to 100 | – | – | – | – | – |
| COc1ccnc(C(=O)N[C@@H](C)C(=O)O[C@@H](C)[C@H](Cc2ccc(Cl)c(Cl)c2)c2ccccc2)c1OCOC(=O)C(C)C [compound 219] | – | – | – | 0 to 80 | 0 to 80 | 0 to 80 | 0 to 80 | – |
| CCCOC[C@@H](Cc1ccccc1)[C@H](C)OC(=O)C(C)(C)NC(=O)c1nccc(OC)c1O [compound 99] | – | 0 to 80 | 0 to 80 | – | – | – | – | 0 to 80 |
| COc1ccnc(C(=O)N[C@H](C(=O)OC(C)C(Cc2ccccc2)Cc2ccccc2)C(C)C)c1O (stereo partly shown) [compound 148] | 0 to 80 | – | 0 to 80 | – | – | – | – | – |
| CCOCC(=O)OCOc1c(OC)ccnc1C(=O)N[C@@H](C)C(=O)O[C@@H](C)[C@H](CCC(C)C)c1ccccc1 [compound 215] | – | – | – | 80 to 100 | 80 to 100 | 80 to 100 | 80 to 100 | – |
| CCOCC(=O)OCOc1c(OC)ccnc1C(=O)N[C@@H](C)C(=O)O[C@@H](C)[C@H](Cc1ccccc1)C(C)(C)OCc1ccccc1 [compound 236] | – | – | – | 80 to 100 | 0 to 80 | 80 to 100 | 0 to 80 | – |
| CCCOC[C@@H](Cc1ccc(OC)c(Cc2ccccc2)c1)[C@H](C)OC(=O)[C@H](C)NC(=O)c1nccc(OC)c1O [compound 145] | 80 to 100 | 0 to 80 | 0 to 80 | – | – | – | – | – |
| C=C(C)[C@@H](Cc1ccccc1)[C@H](C)OC(=O)[C@H](C)NC(=O)c1nccc(OC)c1OCOC(C)=O [compound 255] | – | – | – | 0 to 80 | 80 to 100 | 80 to 100 | 80 to 100 | – |
| CC[C@H](Cc1ccc(C(F)(F)F)cc1)[C@@H](Cc1ccc(F)cc1)[C@H](C)OC(=O)[C@H](C)NC(=O)c1nccc(OC)c1O [compound 284] | 0 to 80 | – | 80 to 100 | – | – | – | – | 80 to 100 |
| C=C[C@H](Cc1ccc(C(F)(F)F)cc1)[C@@H](Cc1ccc(F)cc1)[C@H](C)OC(=O)[C@H](C)NC(=O)c1nccc(OC)c1O [compound 108] | – | 0 to 80 | 80 to 100 | – | – | – | – | – |
| COc1ccnc(C(=O)N[C@@H](C)C(=O)O[C@@H](C)[C@H](CCC(C)C)c2ccccc2)c1OCOC(C)=O [compound 213] | – | – | – | 80 to 100 | 80 to 100 | 80 to 100 | 80 to 100 | – |
| CC[C@H](NC(=O)c1nccc(OC)c1OCOC(C)=O)C(=O)O[C@@H](C)C(Cc1ccc(OC)cc1)Cc1ccc(OC)cc1 [compound 277] | – | – | – | 80 to 100 | – | 80 to 100 | 0 to 80 | – |
| COc1ccnc(C(=O)N[C@@H](C)C(=O)O[C@@H](C)[C@H](Cc2ccc(F)cc2)C(C)(C)OCc2ccc(F)cc2)c1OCOC(C)=O [compound 250] | – | – | – | 0 to 80 | – | 0 to 80 | 0 to 80 | – |
| COc1ccnc(C(=O)N[C@@H](C)C(=O)O[C@@H](C)[C@H](Cc2ccc3ccccc3c2)c2ccccc2)c1OCOC(=O)C(C)C [compound 226] | – | – | – | 0 to 80 | 0 to 80 | 0 to 80 | – | – |
